The text below walks through data of ChEMBL document CHEMBL1126927.

The target of this experiment is Estrogen receptor (Ovis aries) (UniProt P49885+Q9TU15).
Description: Association constant for estrogen receptor
For `[N-]=[N+]=Nc1ccc(C(=O)c2c(-c3ccc(O)cc3)sc3cc(O)ccc23)cc1`, the K ass is 1e+09.
On to `[N-]=[N+]=Nc1c(F)c(F)c(C(=O)c2c(-c3ccc(O)cc3)sc3cc(O)ccc23)c(F)c1F`, for which the K ass was found to be 1.7e+08.
As for `O=C(c1ccc(OCCN2CCCC2)cc1)c1c(-c2ccc(O)cc2)sc2cc(O)ccc12`, the K ass came out at 1.3e+09.
